Reference: patent publication US20180235234A1, “COMPOSITIONS COMPRISING A BIOLOGICAL CONTROL AGENT AND AN INSECTICIDE” (priority 2012, published 2018)

Assays:
Format in all cases: in vivo
Spodoptera frugiperda [1] = assay: Spodoptera frugiperda spray test, cotton leaves; conditions: mortality
Protocol: (§1) Spodoptera frugiperda—Spray Test
To produce a suitable preparation of active compound, 1 part by weight of active compound was mixed with the stated amount of solvent and was diluted with water, containing an emulsifier concentration of 1000 ppm, to the desired concentration. To produce a suitable preparation of a spore suspension the spores were diluted with emulsifier-containing water to the desired concentration. Further test concentrations were prepared by dilution with emulsifier-containing water. Ammonium salt and/or penetration enhancer in a dosage of 1000 ppm were added if necessary.
Cotton leaves (Gossypium hirsutum) were treated by being sprayed with the preparation of the active compound of the desired concentration and were infested with caterpillars of the fall army worm (Spodoptera frugiperda).
After the specified period of time % mortality was determined. 100% means all the caterpillars were killed, and 0% means none of the caterpillars were killed.

Myzus persicae = Myzus persicae spray test (MYZUPE), Chinese cabbage leaf disks; conditions: mortality
Protocol: (§2) For all examples the efficiencies of the compositions comprising at least one BCA and at least one specific insecticide has been determined by the “Colby-formula”. The expected efficacy of a given combination of two compounds is calculated as follows (see Colby, S. R., “Calculating Synergistic and antagonistic Responses of Herbicide Combinations”, Weeds 15, pp. 20-22, 1967): If • X is the efficacy expressed in % mortality of the untreated control for test compound A at a concentration of m ppm respectively m g/ha, • Y is the efficacy expressed in % mortality of the untreated control for test compound B at a concentration of n ppm respectively n g/ha, • E is the efficacy expressed in % mortality of the untreated control using the mixture of A and B at m and n ppm respectively m and n g /ha, then
(§3) If the observed insecticidal efficacy of the combination is higher than the one calculated as “E”, then the combination of the two compounds is more than additive, i.e., there is a synergistic effect.
Myzus persicae—Spray Test (MYZUPE)
(§4) To produce a suitable preparation of active compound, 1 part by weight of active compound is mixed with the stated amount of solvent and emulsifier, and the concentrate is diluted with emulsifier-containing water to the desired concentration. To produce a suitable preparation of a spore suspension the spores are diluted with emulsifier-containing water to the desired concentration.
Chinese cabbage (Brassica pekinensis) leaf—disks infected with all instars of the green peach aphid (Myzus persicae), are sprayed with a preparation of the active ingredient of the desired concentration.
After the specified period of time, mortality in % is determined. 100% means all aphids have been killed; 0% means none of the aphids have been killed. The mortality values determined thus are recalculated using the Colby-formula (see above).

Spodoptera frugiperda [2] = assay: Spodoptera frugiperda spray test, maize leaf sections; conditions: mortality
Protocol: as §2, §3, §1
as §4, with “preparation of the active compound,” for “preparation of active compound,”
Maize (Zea mais) leaf sections are sprayed with a preparation of the active ingredient of the desired concentration. Once dry, the leaf sections are infested with fall armyworm larvae (Spodoptera frugiperda).
After the specified period of time, mortality in % is determined. 100% means all caterpillars have been killed and 0% means none of the caterpillars have been killed. The mortality values determined thus are recalculated using the Colby-formula (see above).

Aphis gossypii = Aphis gossypii spray test, cotton leaves; conditions: 2 ppm; mortality
Protocol: as §2, §3
Aphis gossypii—Spray Test […]
After the specified period of time, the mortality in % is determined. […] The mortality values determined thus are recalculated using the Colby-formula (see above).

Phaedon cochleariae = Phaedon cochleariae spray test, Chinese cabbage leaf disks; conditions: 0.16 g ai/ha; mortality
Protocol: as §2, §3
Phaedon cochleariae—Spray Test […]
After the specified period of time, mortality in % is determined. […] The mortality values determined thus are recalculated using the Colby-formula (see above).

`Cc1c(COC(=O)[C@@H]2[C@H](/C=C(\Cl)C(F)(F)F)C2(C)C)cccc1-c1ccccc1` (racemic) [Bifenthrin] was tested, and the “Efficacy in % after 3 days” value (Spodoptera frugiperda [1]; 0.5 ppm) was 0%, the “Efficacy in % after 6 days” value (Spodoptera frugiperda [1]; 0.5 ppm) was 20% and the “Efficacy in % after 2 days” value (Spodoptera frugiperda [1]; 2 ppm) was 20%. For the same molecule, the “Efficacy in % after 2 days” value (Spodoptera frugiperda [1]; 8 ppm) was 60%.

For `Cc1c(F)c(F)c(COC(=O)[C@@H]2[C@H](/C=C(\Cl)C(F)(F)F)C2(C)C)c(F)c1F` (racemic) [Tefluthrin (I134), Tefluthrin], the “Efficacy in % after 6 d” value (Myzus persicae; 2 g/ha) was 0%, the “Efficacy in % after 6 d” value (Spodoptera frugiperda [2]; 0.4 g ai/ha) was 17% and the “Efficacy in % after 6 d” value (Spodoptera frugiperda [2]; 4 g ai/ha) was 50%. For the same molecule, the “Efficacy in % after 2 d” value (Spodoptera frugiperda [2]; 10 g ai/ha) was 0% and the “Efficacy in % after 1 d” value (Aphis gossypii) was 15%.

`CC1(C)[C@H](C(=O)O[C@H](C#N)c2cccc(Oc3ccccc3)c2)[C@@H]1C=C(Br)Br` [Deltamethrin (I116), Deltamethrin] was tested, and the “Efficacy in % after 6 d” value (Myzus persicae; 0.032 g/ha) was 0%.

With `CC1(C)C(C=C(Cl)Cl)C1C(=O)OC(C#N)c1ccc(F)c(Oc2ccccc2)c1` (stereo not drawn) [ß-Cyfluthrin (I106), beta-Cyfluthrin] the “Efficacy in % after 1 d” value (Myzus persicae; 0.16 g/ha) was 0%, the “Efficacy in % after 6 d” value (Myzus persicae; 0.16 g/ha) was 0% and the “Efficacy in % after 6 d” value (Myzus persicae; 2 g/ha) was 0%. The “Efficacy in % after 6 d” value (Spodoptera frugiperda [2]; 0.16 g ai/ha) was 0%, the “Efficacy in % after 6 d” value (Spodoptera frugiperda [2]; 0.4 g ai/ha) was 33% and the “Efficacy in % after 6 d” value (Phaedon cochleariae) was 0%.
